Laboratory results published in patent US20250327791A1, “METHODS OF TREATMENT BASED ON PATIENT SPECIFIC CLINICAL TRIAL MODELS AND ASSOCIATED MODELS AND USES” (DUKE UNIVERSITY, priority 2017, published 2025).

Legend:
CRC119 = test: High-throughput drug screen, CellTiter-Glo cell viability; type: cell-based, human; details: CRC119 cell line; 1 μM; 72 hours
Procedure: (§1) Unless otherwise noted all experiments were carried out using the following materials and methods which are here presented as examples and not limiting embodiments. All equivalent variants are contemplated as part of the presently disclosed subject matter. An Echo Acoustic Dispenser provided automated liquid handling for drug addition while cell plating was performed by a Thermo Fisher Well Mate and assays used a Clarioscan plate reader. The drugs assayed were stamped to the cell plates immediately prior to cell plating at a final concentration of 1 μM. The drug pre-coated plates were plated with 500-1000 cells/well. 72 hours after cell plating cell viabilities were assessed via a CellTiter-Glo Luminescent Cell Viability Assay.
(§2) In this embodiment matching cells lines 31 and PDXs are created 32. These can be developed as described in the Uronis and Kim papers previously incorporated by reference. Drugs may subsequently be screened using these cell lines 33 the results validated in vivo 34 and RNA-Seq and molecular analysis 35 used. As a non-limiting example, CRC057, CRC119, CRC240, CRC247 15-496, and 16-159 were derived from patient colorectal cancers. It should be understood by those of skill in the art that any suitable type of cancer sample may have been taken. High-throughput drug screens, including 119 FDA-approved drug compounds, were performed using the patient-derived cell lines. Any suitable type of high or low throughput drug screen of any FDA approved or non-FDA approved drug may be performed on the cell lines. […] 88%, 95%, 88, and 89% of CRC119 were killed by docetaxel 42, doxorubicin 41, and the vinca alkaloids vincristine and vinorelbine 43 respectively. 46%, 93%, 63% and 56% of CRC240 were killed by docetaxel 42, doxorubicin 41, and the vinca alkaloids vincristine and vinorelbine 43 respectively. 47% 83%, 46% and 46% of CRC057 were killed by docetaxel 42, doxorubicin 41, and the vinca alkaloids vincristine and vinorelbine 43 respectively. 25%, 70%, 37%, and 33% of CRC247 were killed by docetaxel 42, doxorubicin 41, and the vinca alkaloids vincristine and vinorelbine 43 respectively. […] CRC119 45 and 16-159 46 were sensitive to the standard of care cytotoxic chemotherapeutic agent irinotecan with 43% and 64% of cells killed respectively.

CRC057 [1] = test: as above; type: cell-based, human; details: CRC057 cell line; 1 μM; 72 hours
Procedure: as §1, §2

CRC240 [2] = test: as above; type: cell-based, human; details: CRC240 cell line; 1 μM; 72 hours
Procedure: as §1, §2

CRC247 = test: as above; type: cell-based, human; details: CRC247 cell line; 1 μM; 72 hours
Procedure: as §1, §2

organoid A = test: Organoid cell viability / IC50; type: cell-based; details: for IC50: organoid A
Procedure: (§3) In embodiments organoids were created by embedding single cells in Matrigel on ice and seeding the cells in 48 well plates. After the Matrigel was polymerized for 10 minutes at 37° C. basal culture medium was overlaid containing at least one of the optimized growth factor combinations in FIG. 19.
(§4) ATAC-Seq tests were run to determine which pathways were up and down regulated in the presence of various drugs. […] The effectiveness of oxaliplatin 230, an FGFR1 inhibitor 231, along with oxaliplatin and an FGFR1 inhibitor 234 as cell killers was tested in the organoid as shown in FIG. 23. […] The cell killing potential of oxaliplatin 241, an oxytocin antagonist 243, along with oxaliplatin and an oxytocin antagonist 245 was tested as shown in FIG. 24.

organoid B = test: Organoid cell viability / IC50; type: cell-based
Procedure: as §3, §4

organoid C = test: Organoid cell viability / IC50; type: cell-based
Procedure: as §3, §4

CRC18-347 organoid = test: Organoid drug sensitivity assay (Cell Titer Glo); type: cell-based, human
Procedure: (§5) In embodiments, organoids are prepared by mincing a […] tissue sample into <2 mm^3 pieces. Samples are then digested in 5 mL of DMEMF-12+Penicillin Streptomycin+Rock inhibitor Y-27632 along with 20 μL of 0.25% Trypsin/EDTA for an hour with manual inversion every 10 minutes. After being spun down at 1500 RPM the pellet is washed with 5 mL of 10% FBS. During each of 3 washes the material is pipetted slowly about fifteen times. After each wash supernatant is collected and passed through a 70 μm cell strainer. Collected washes are spun down for five minutes at 1500 RPM and the pellet mixed with a 4:1 mixture of Matrigel®/PBS and plated. After the Matrigel® solidifies 1 mL of media is added to each well.
(§6) Collected matrigel is spun for 7 minutes at 1500 RPM. The pellet is collected and resuspended in 300 μL of PBS. 50 μL of this mixture is then mixed with 50 μL of a 1:1 mixture of matrigel/PBS. 5 μL of this mixture is then added to the center of each well in a 96 well plate and the plate incubated until the matrigel solidifies. […] After 90 μL of media is added and the plate is incubated at 37° C. for 24 hours, 5 μL of the tested drug is added to each well. Example concentrations, such as 100 nM, 1 μM and 10 μM concentrations, may be tested in triplicate. After the plate is incubated at 37° C. for 48 hours, 40 μL of Cell Titer Glo for organoids is added to each well to determine drug sensitivity.
(§7) In embodiments, patients undergo biopsy of metastatic cancer, CT of the chest, abdomen and pelvis. In embodiments, drug sensitivity is tested within 7-10 days (or 2-3 days) of obtaining tissue. In embodiments, FIG. 12, organoids are prepared from a PDX biopsy 121 by collecting and digesting cells 122, seeding the cells in a 24 well plate 123, after incubation seeding cells from the 24 well plate in a 96 well plate 124 and screening drugs 125. […] Sensitivity to oxaliplatin at 100 nM, 1 μM, and 10 μM was tested on 8 organoids, CRC057, CRC119, CRC240, CRC16-159, CRC17-608, CRC18-347, CRC247 and CRC18-266, created using the above procedure. […] SN38 (7-ethyl-10-hydroxycamptothecin) was tested, rather than irinotecan, in organoids since irinotecan undergoes deesterification to SN-38 in vivo but not in vitro.

CRC16-159 organoid = test: Organoid drug sensitivity assay (Cell Titer Glo); type: cell-based, human
Procedure: as §5, §6, §7

CRC057 organoid = test: Organoid drug sensitivity assay (Cell Titer Glo); type: cell-based, human
Procedure: as §5, §6, §7

CRC240 organoid = test: Organoid drug sensitivity assay (Cell Titer Glo); type: cell-based, human; details: SN38 tested rather than irinotecan in organoids
Procedure: as §5, §6, §7

CRC119 organoid = test: Organoid drug sensitivity assay (Cell Titer Glo); type: cell-based, human; details: SN38 tested rather than irinotecan in organoids
Procedure: as §5, §6, §7

CRC057 PDX = test: PDX studies accompanying the organoid studies (tumor growth inhibition); type: in vivo, mice; details: 10 mg/kg oxaliplatin weekly IP for three weeks
Text: (§8) PDX studies accompanying the organoid studies were developed as described previously and in Uronis J M, Osada T, McCall S, Yang X Y, Mantyh C, Morse M A, et al. Histological and molecular evaluation of patient-derived colorectal cancer explants. PloS one 2012; 7:e38422, and Kim M K, Osada T, Barry W T, Yang X Y, Freedman J A, Tsamis K A, et al. Characterization of an oxaliplatin sensitivity predictor in a preclinical murine model of colorectal cancer. Molecular cancer therapeutics 2012; 11:1500-1509. Both of these references are hereby incorporated in their entirety. 6-8 week old NOD/SCID-beige mice were used and the tumors were measured twice a week as described above. Once tumors reached a size of 250 mm^3 mice were treated with either 10 mg/kg oxaliplatin or 20 mg/kg irinotecan weekly via IP (intraperitoneal injection) for three weeks with saline used as a control. PDX tumor sizes were recorded and one-way ANOVA analysis were carried out as described in the references above to determine TGI (tumor growth inhibition.
as §7

CRC16-159 PDX = test: as above; type: in vivo, mice; details: 10 mg/kg oxaliplatin weekly IP for three weeks
Text: as §8, §7

18-347 PDX = test: as above; type: in vivo, mice; details: 10 mg/kg oxaliplatin weekly IP for three weeks
Text: as §8, §7

CRC240 PDX = test: as above; type: in vivo, mice; details: 10 mg/kg oxaliplatin or 20 mg/kg irinotecan weekly IP for three weeks
Text: as §8, §7

CRC119 PDX = test: as above; type: in vivo, mice; details: 10 mg/kg oxaliplatin or 20 mg/kg irinotecan weekly IP for three weeks
Text: as §8, §7

16-159 = test: High-throughput drug screen, CellTiter-Glo cell viability; type: cell-based, human; details: 16-159 cell line; 1 μM; 72 hours
Procedure: as §1, §2

CRC057 [3] = test: In vitro screening, ponatinib IC50 (cell viability); type: cell-based; details: Homo sapiens, 72 hours after drug addition
Procedure: (§9) For in vitro screening, cell lines were cultured in DMEM+10% FBS+1% Penicillin/Streptomycin and plated in drug free medium. Ponatinib solubilized in DMSO was added to cell lines containing between 3000-6000 cells that had been incubated at 37° C. for 24 hours. Each cell line was exposed to seven different drug combinations between 1.6 nM and 25 μM. Five replicates were used for each drug concentration. 72 hours after drug addition cell viability assay and IC50 values were calculated for each cell line using GraphPad Prism software.
(§10) Reanalyzing the screen data, FIG. 6A identified axitinib 61, sunitinib 62, and dasatinib 63 as targeting similar pathways as ponatinib 64. […] Pre and post ponatinib treatment the major signaling pathways downstream of FGFR, FIG. 7C, not only show a decrease in STAT expression FIG. 8 in CRC119 81, CRC240 83, and CRC057 85 but an increase in p-AKT expression in CRC 119 86, CRC240 87, and CRC057 88. Expression of p-ERK increased in CRC240 89, and CRC057 82 as well.

CRC 119 = test: as above; type: cell-based; details: Homo sapiens, 72 hours after drug addition
Procedure: as §9, §10

CRC240 [4] = test: as above; type: cell-based; details: Homo sapiens, 72 hours after drug addition
Procedure: as §9, §10

CRC cell lines = test: High-throughput drug screen, panel of patient-derived cell lines; type: cell-based; details: Homo sapiens, in 4/6 cell lines, mined drug screen data, read-out: inhibits growth
Procedure: as §1
In this embodiment matching cells lines 31 and PDXs are created 32. These can be developed as described in the Uronis and Kim papers previously incorporated by reference. Drugs may subsequently be screened using these cell lines 33 the results validated in vivo 34 and RNA-Seq and molecular analysis 35 used. As a non-limiting example, CRC057, CRC119, CRC240, CRC247 15-496, and 16-159 were derived from patient colorectal cancers. It should be understood by those of skill in the art that any suitable type of cancer sample may have been taken. High-throughput drug screens, including 119 FDA-approved drug compounds, were performed using the patient-derived cell lines. […]

Structure (SMILES)	cells killed (CRC119) [%]	cells killed (CRC057 [1]) [%]	cells killed (CRC240 [2]) [%]	cells killed (CRC247) [%]	IC50 (organoid A) [nM]	IC50 (organoid B) [nM]	IC50 (organoid C) [nM]	further results
COc1cccc2c1C(=O)c1c(O)c3c(c(O)c1C2=O)C[C@@](O)(C(=O)CO)C[C@@H]3O[C@H]1C[C@H](N)[C@H](O)[C@H](C)O1 [doxorubicin]	95	83	93	70				
CCc1c2c(nc3ccc(O)cc13)-c1cc3c(c(=O)n1C2)COC(=O)[C@]3(O)CC [SN38, 7-ethyl-10-hydroxycamptothecin]					11.6	43900	32.6	
O=c1[nH]cc(F)c(=O)[nH]1 [fluorouracil]					3960	37	125	
CCC1=C[C@@H]2CN(C1)Cc1c([nH]c3ccccc13)[C@@](C(=O)OC)(c1cc3c(cc1OC)N(C)[C@H]1[C@@](O)(C(=O)OC)[C@H](OC(C)=O)[C@]4(CC)C=CCN5CC[C@]31[C@@H]54)C2 [vinorelbine]	89	46	56	33				
CC[C@]1(O)C[C@H]2CN(CCc3c([nH]c4ccccc34)[C@@](C(=O)OC)(c3cc4c(cc3OC)N(C=O)[C@H]3[C@@](O)(C(=O)OC)[C@H](OC(C)=O)[C@]5(CC)C=CCN6CC[C@]43[C@@H]65)C2)C1 [vincristine]	88	46	63	37				
CC(=O)O[C@@]12CO[C@@H]1C[C@H](O)[C@@]1(C)C(=O)[C@H](O)C3=C(C)[C@@H](OC(=O)[C@H](O)[C@@H](NC(=O)OC(C)(C)C)c4ccccc4)C[C@@](O)([C@@H](OC(=O)c4ccccc4)[C@H]21)C3(C)C [docetaxel]	88	47	46	25				
O=C1[O][Pt]2([NH][C@@H]3CCCC[C@H]3[NH]2)[O]C1=O [oxaliplatin]		46			128000	7010	21700	organoid sensitivity (CRC18-347 organoid; 18-347 organoid): sensitive; killing (CRC18-347 organoid; CRC18-347 organoid, 1 μM): > 50%; organoid sensitivity (CRC16-159 organoid): resistant; organoid sensitivity (CRC057 organoid): sensitive; killing (CRC057 organoid; 1 μM): > 50%; organoid sensitivity (CRC240 organoid): resistant; organoid sensitivity (CRC119 organoid): resistant; organoid sensitivity (organoid A; Organoid A, from the IC50 data): resistant; PDX sensitivity (CRC057 PDX): sensitive; PDX sensitivity (CRC16-159 PDX): resistant; PDX sensitivity (18-347 PDX): sensitive; PDX sensitivity (CRC240 PDX): resistant; PDX sensitivity (CRC119 PDX): resistant
CCc1c2c(nc3ccc(OC(=O)N4CCC(N5CCCCC5)CC4)cc13)-c1cc3c(c(=O)n1C2)COC(=O)[C@]3(O)CC [irinotecan]	43							organoid sensitivity (CRC240 organoid): sensitive; organoid sensitivity (CRC119 organoid): sensitive; PDX sensitivity (CRC240 PDX): sensitive; PDX sensitivity (CRC119 PDX): sensitive; cells killed (16-159): 64%
Cc1ccc(C(=O)Nc2ccc(CN3CCN(C)CC3)c(C(F)(F)F)c2)cc1C#Cc1cnc2cccnn12 [ponatinib]								IC50 (CRC057 [3]): 700 nM; IC50 (CRC 119): 1100 nM; IC50 (CRC240 [4]): 1100 nM; inhibition at 1 µM (CRC cell lines): ≥ 50%
